Literature values, collected in US20070265345A1, “Novel Biphenyl Compounds And Their Use” (SMITHKLINE BEECHAM CORPORATION, priority 2004, published 2007).

Tested on: A549 cells

GI50 [nM]	SMILES
500000	NC(=O)NO [hydroxyurea]
1000	O=c1[nH]cc(F)c(=O)[nH]1 [5-fluorouracil]
4	CC(=O)O[C@H]1C(=O)[C@@]2(C)[C@H]([C@H](OC(=O)c3ccccc3)[C@]3(O)C[C@H](OC(=O)[C@H](O)[C@@H](NC(=O)c4ccccc4)c4ccccc4)C(C)=C1C3(C)C)[C@]1(OC(C)=O)CO[C@@H]1C[C@@H]2O [paclitaxel]
63	COc1cccc2c1C(=O)c1c(O)c3c(c(O)c1C2=O)C[C@@](O)(C(=O)CO)C[C@@H]3O[C@H]1C[C@H](N)[C@H](O)[C@H](C)O1 [doxorubicin]
